Test results from patent US10829523B2, “Anti-tumor peptides and use thereof” (TOAGOSEI CO., LTD., priority 2017, dated 2020).
Peptide text beside a SMILES is read from it.

Key:
Details in all cases: 5 h incubation, n=3 average
[1] = tested on: mammary cancer cell line (MDA-MB-231); assay: Anti-tumor activity test, cell survival rate (WST-8); assay type: cell-based, human
Experimental: (§1) For any one of each sample peptide synthesized in the above Test Example 1, an anti-tumor activity was evaluated by having various kinds of cultured tumor cells as a subject.
(§2) Specifically, as a tumor cell for test, cultured mammary cancer cell line (MCF-7), cultured mammary cancer cell line (MDA-MB-231), cultured pancreatic cancer cell line (MIA PaCa-2), cultured prostate cancer cell line (PC-3), and cultured prostate cancer cell line (DU-145), which are currently available on the market, were used. Furthermore, as a subject for comparison, commercially available cultured cell line of normal human mammary epithelial cells was used. Details of the test are described below.
(§3) Namely, those cell lines were cultured in advance in DMEM medium (that is, Dulbecco's MEM medium (DMEM medium: product of Gibco) containing 10% fetal bovine serum (FBS: product of Gibco), 2 mM L-glutamine, 50 unit/mL penicillin, and 50 μg/mL of streptomycin), and adjusted such that the number of cells per well of a 96-hole (well) plate is about 1×10^4. The medium amount was 100 μL per well.
(§4) Subsequently, the 96-hole (well) plate was kept in a CO2 incubator and pre-incubation was carried out for about 1 day (22 hours to 23 hours) at conditions of 37° C., 5% CO2.
(§5) After that, a test medium containing the peptide at each concentration was prepared such that the peptide concentration in any sample to be an evaluation subject is any one of 3.13 μM, 6.25 μM, 12.5 μM, 25 μM, 50 μM, and 100 μM. Then, the test medium was supplied, in an amount of 90 μL per well, to a well in which the cells as an evaluation subject have been cultured (that is, well after the above pre-incubation). In addition, the 96-hole (well) plate was returned to the CO2 incubator and incubated for 5 hours at conditions of 37° C., 5% CO2.
(§6) Furthermore, number (n) of the test wells for the test group added with each peptide at each peptide concentration was all set at 3. Thus, the result values shown in the following table correspond to an average value of the results which have been obtained from each of test well number of 3. Cell survival rate (%) was determined as described below.
(§7) Upon completion of the incubation for 5 hours described above, the medium in each well was replaced with 100 μL of fresh medium not containing the peptide. Furthermore, “Cell Counting Kit-8” (product of Dojindo Laboratories) containing as a chromogenic reagent “Aqueous tetrazolium salt (WST-8)”, which is a reagent for measuring cell proliferation, was added in an amount of 10 μL to each well. After that, the 96-hole (well) plate was returned to the CO2 incubator and incubated for 1.5 hours at conditions of 37° C. 5% CO2.
(§8) Upon completion of the incubation, the cell culture solution added with the above reagent was recovered, and simultaneously, according to colorimetry by which absorbance at wavelength of 450 nm based on reduction of tetrazolium salt (value calibrated with absorbance at wavelength of 650 nm: A450-A650), the cell survival rate (%) was evaluated.

[2] = tested on: normal human mammary epithelial cells; assay: Cell survival rate test (WST-8, Cell Counting Kit-8) on normal cells for comparison; assay type: cell-based
Experimental: as §1, §2, §3, §4, §5, §6, §7, §8

[3] = tested on: prostate cancer cell line (DU-145); assay: Anti-tumor activity test, cell survival rate (WST-8); assay type: cell-based, human
Experimental: as §1, §2, §3, §4, §5, §6, §7, §8

[4] = tested on: pancreatic cancer cell line (MIA PaCa-2); assay: as above; assay type: cell-based, human
Experimental: as §1, §2, §3, §4, §5, §6, §7, §8

[5] = tested on: mammary cancer cell line (MCF-7); assay: as above; assay type: cell-based, human
Experimental: as §1, §2, §3, §4, §5, §6, §7, §8

[6] = tested on: prostate cancer cell line (PC-3); assay: as above; assay type: cell-based, human
Experimental: as §1, §2, §3, §4, §5, §6, §7, §8

| SMILES | Cell survival rate (%) ([1]; peptide 3.13 μM) | Cell survival rate (%) ([1]; peptide 50 μM) | Cell survival rate (%) ([2]; peptide 12.5 μM) | Cell survival rate (%) ([2]; peptide 25 μM) | Cell survival rate (%) ([2]; peptide 50 μM) | Cell survival rate (%) ([2]; peptide 100 μM) | Cell survival rate (%) ([3]; peptide 12.5 μM) | Cell survival rate (%) ([3]; peptide 25 μM) | Cell survival rate (%) ([3]; peptide 50 μM) | Cell survival rate (%) ([3]; peptide 100 μM) | Cell survival rate (%) ([4]; peptide 12.5 μM) | Cell survival rate (%) ([4]; peptide 25 μM) | Cell survival rate (%) ([4]; peptide 50 μM) | Cell survival rate (%) ([4]; peptide 100 μM) | Cell survival rate (%) ([1]; peptide 12.5 μM) | Cell survival rate (%) ([1]; peptide 25 μM) | Cell survival rate (%) ([1]; peptide 100 μM) | Cell survival rate (%) ([5]; peptide 12.5 μM) | Cell survival rate (%) ([5]; peptide 25 μM) | Cell survival rate (%) ([5]; peptide 50 μM) | also measured |
| --- | --- | --- | --- | --- | --- | --- | --- | --- | --- | --- | --- | --- | --- | --- | --- | --- | --- | --- | --- | --- | --- |
| CC[C@H](C)[C@H](NC(=O)[C@H](C)NC(=O)[C@H](CO)NC(=O)[C@@H](NC(=O)[C@H](CC(C)C)NC(=O)[C@H](Cc1ccccc1)NC(=O)[C@H](CO)NC(=O)[C@H](Cc1c[nH]c2ccccc12)NC(=O)[C@H](CCC(N)=O)NC(=O)[C@@H](NC(=O)[C@@H]1CCCN1)C(C)C)C(C)C)C(=O)N[C@@H](C)C(=O)NCC(=O)N[C@@H](CO)C(=O)N[C@H](C(=O)N[C@@H](C)C(=O)N[C@@H](CO)C(=O)N[C@@H](Cc1ccc(O)cc1)C(=O)N[C@@H](CCCNC(=N)N)C(=O)N[C@H](C(=O)N[C@@H](Cc1c[nH]c2ccccc12)C(=O)N[C@@H](CCCNC(=N)N)C(=O)N[C@@H](CCCNC(=N)N)C(=O)N[C@@H](CCC(N)=O)C(=O)N[C@@H](C)C(=O)N[C@@H](CCCNC(=N)N)C(=O)N[C@@H](Cc1ccccc1)C(=O)N[C@@H](CCCCN)C(N)=O)C(C)C)C(C)C [Sample 11] (H-PVQWSFLVSAIAGSVASYRVWRRQARFK-NH2; N-terminus assumed) | 101% | 77% |  |  |  |  |  |  |  |  |  |  |  |  |  |  |  |  |  |  |  |
| CC[C@H](C)[C@H](NC(=O)CNC(=O)[C@@H](NC(=O)[C@@H](NC(=O)CNC(=O)[C@H](CC(C)C)NC(=O)[C@@H](NC(=O)[C@H](Cc1ccccc1)NC(=O)[C@H](CO)NC(=O)[C@H](C)NC(=O)[C@@H](NC(=O)CNC(=O)[C@H](CCCCN)NC(=O)[C@H](CCSC)NC(=O)[C@H](Cc1ccccc1)NC(=O)[C@H](C)NC(=O)[C@@H](N)Cc1ccc(O)cc1)[C@@H](C)O)[C@@H](C)CC)[C@@H](C)O)C(C)C)C(=O)N[C@@H](Cc1ccccc1)C(=O)N[C@@H](Cc1ccccc1)C(=O)NCC(=O)N[C@@H](Cc1c[nH]c2ccccc12)C(=O)N[C@@H](CCCNC(=N)N)C(=O)N[C@@H](CCCNC(=N)N)C(=O)N[C@@H](CCC(N)=O)C(=O)N[C@@H](C)C(=O)N[C@@H](CCCNC(=N)N)C(=O)N[C@@H](Cc1ccccc1)C(=O)N[C@@H](CCCCN)C(N)=O [Sample 8] (H-YAFMKGTASFILGTVGIFFGWRRQARFK-NH2; N-terminus assumed) | 99% | 76% |  |  |  |  |  |  |  |  |  |  |  |  |  |  |  |  |  |  |  |
| CC[C@H](C)[C@H](NC(=O)CNC(=O)[C@H](CC(C)C)NC(=O)[C@H](CC(C)C)NC(=O)[C@H](Cc1ccccc1)NC(=O)[C@@H](NC(=O)CNC(=O)[C@@H](NC(=O)CNC(=O)[C@H](CCCCN)NC(=O)[C@@H](N)CCSC)[C@@H](C)O)[C@@H](C)O)C(=O)N[C@@H](C)C(=O)NCC(=O)N[C@@H](CC(C)C)C(=O)N[C@@H](Cc1ccccc1)C(=O)N[C@H](C(=O)N[C@@H](CC(C)C)C(=O)N[C@@H](CCC(N)=O)C(=O)N[C@@H](CCCCN)C(=O)N[C@H](C(=O)N[C@H](C(=O)N[C@@H](CCC(N)=O)C(=O)N[C@@H](CCCNC(=N)N)C(=O)N[C@@H](CCCNC(=N)N)C(=O)N[C@@H](CCCNC(=N)N)C(=O)N[C@@H](CCCNC(=N)N)C(=O)N[C@@H](CCCNC(=N)N)C(=O)N[C@@H](CCCNC(=N)N)C(=O)N[C@@H](CCCNC(=N)N)C(=O)N[C@@H](CCCNC(=N)N)C(=O)N[C@@H](CCCNC(=N)N)C(N)=O)[C@@H](C)CC)C(C)C)[C@@H](C)O [Sample 2] (H-MKGTGTFLLGIAGLFTLQKVIQRRRRRRRRR-NH2; N-terminus assumed) |  | 52.6% | 88.3% | 82.1% | 56.1% | 42.7% | 86.2% | 75.2% | 41.2% | 16.4% | 94.4% | 91.3% | 36.7% | 7% | 80% | 69.7% | 44.3% | 75.7% | 49.1% | 20.2% | Cell survival rate (%) ([5]; peptide 100 μM): 17.6%; Cell survival rate (%) ([6]; peptide 12.5 μM): 101.1%; Cell survival rate (%) ([6]; peptide 25 μM): 80.9%; Cell survival rate (%) ([6]; peptide 50 μM): 45.2%; Cell survival rate (%) ([6]; peptide 100 μM): 42.6% |
| CC[C@H](C)[C@H](NC(=O)[C@H](CO)NC(=O)[C@@H](NC(=O)[C@H](Cc1ccccc1)NC(=O)[C@H](CC(C)C)NC(=O)[C@H](CC(N)=O)NC(=O)[C@H](Cc1c[nH]c2ccccc12)NC(=O)[C@H](CCC(N)=O)NC(=O)[C@@H](N)CC(C)C)C(C)C)C(=O)N[C@H](C(=O)N[C@@H](CO)C(=O)N[C@@H](CO)C(=O)N[C@@H](CO)C(=O)N[C@H](C(=O)N[C@@H](Cc1ccccc1)C(=O)N[C@@H](CO)C(=O)N[C@@H](Cc1ccc(O)cc1)C(=O)N[C@@H](CO)C(=O)N[C@H](C(=O)N[C@@H](Cc1c[nH]c2ccccc12)C(=O)N[C@@H](CCCNC(=N)N)C(=O)N[C@@H](CCCNC(=N)N)C(=O)N[C@@H](CCC(N)=O)C(=O)N[C@@H](C)C(=O)N[C@@H](CCCNC(=N)N)C(=O)N[C@@H](Cc1ccccc1)C(=O)N[C@@H](CCCCN)C(N)=O)C(C)C)C(C)C)C(C)C [Sample 9] (H-LQWNLFVSIVSSSVFSYSVWRRQARFK-NH2; N-terminus assumed) | 99% | 73% |  |  |  |  |  |  |  |  |  |  |  |  |  |  |  |  |  |  |  |
| CC[C@H](C)[C@H](NC(=O)[C@H](CO)NC(=O)[C@@H](NC(=O)[C@H](CC(C)C)NC(=O)[C@H](CC(C)C)NC(=O)[C@H](CC(N)=O)NC(=O)[C@H](Cc1c[nH]c2ccccc12)NC(=O)[C@H](CCC(N)=O)NC(=O)[C@H](CC(C)C)NC(=O)[C@@H]1CCCN1C(=O)[C@@H](N)Cc1ccc(O)cc1)[C@@H](C)CC)C(=O)N[C@@H](CC(C)C)C(=O)N[C@@H](C)C(=O)N[C@@H](CO)C(=O)N[C@@H](CO)C(=O)N[C@H](C(=O)NCC(=O)N[C@@H](CO)C(=O)N[C@@H](Cc1ccc(O)cc1)C(=O)N[C@@H](C)C(=O)N[C@H](C(=O)N[C@@H](CCCCN)C(=O)N[C@@H](CCCCN)C(=O)N[C@@H](CCCNC(=N)N)C(=O)N[C@H](C(=O)N[C@@H](CC(C)C)C(=O)N[C@@H](CCCNC(=N)N)C(=O)N[C@@H](CCCCN)C(=O)N[C@@H](CC(N)=O)C(=O)N[C@@H](CC(=O)O)C(=O)N[C@@H](CCCNC(=N)N)C(=O)N[C@@H](CCCCN)C(=O)N[C@@H](CCCCN)C(=O)N[C@@H](CCCNC(=N)N)C(N)=O)[C@@H](C)O)C(C)C)C(C)C [Sample 3] (H-YPLQWNLLISILASSVGSYAVKKRTLRKNDRKKR-NH2; N-terminus assumed) |  | 54.5% | 83.6% | 71.6% | 81.5% | 74.8% | 78.6% | 73.7% | 49.3% | 37.5% | 101.4% | 93.8% | 88.5% | 45.6% | 77.9% | 65.7% | 45% | 79.3% | 71.8% | 50% | Cell survival rate (%) ([5]; peptide 100 μM): 32.8%; Cell survival rate (%) ([6]; peptide 12.5 μM): 64.6%; Cell survival rate (%) ([6]; peptide 25 μM): 66.5%; Cell survival rate (%) ([6]; peptide 50 μM): 62.5%; Cell survival rate (%) ([6]; peptide 100 μM): 47% |
